Where two headings read alike, the source gives them in different places.
What was measured:
[1] = system: p53 signaling (p53RE-bla HCT-116 cells); assay: cells; assay type: cell-based
[2] = system: p53 signaling (p53RE-bla HCT-116 cells)
[3] = system: p53 signaling (p53RE-bla HCT-116 cells); remark: listed apart in the source
[4] = system: p53RE-bla HCT-116 cells
[5] = system: p53 signaling (p53RE-bla HCT-116 cells); assay: cells; details: Homo sapiens
[6] = Homo sapiens, HCT-116, read-out: EC50, p53 activation, cherry pick confirmation
[7] = Homo sapiens, HCT-116, read-out: EC50, p53 activation, primary screening
[8] = Homo sapiens, HCT-116, read-out: Efficacy, p53 activation, cherry pick confirmation
[9] = HCT-116, read-out: EC50, p53 activation, primary screening

| SMILES | EC50 [1, 6] [µM] | EC50 [1, 7] [µM] | Emax [1, 8] [%] | EC50, p53 activation, cherry pick confirmation [2] | Efficacy, p53 activation, cherry pick confirmation [2] | EC50, p53 activation, cherry pick confirmation [3] | EC50, p53 activation, primary screening [3] | Efficacy, p53 activation, cherry pick confirmation [3] | Efficacy, p53 activation, primary screening [3] | EC50, viability, cherry pick confirmation [4] | EC50, viability, primary screening [4] | Efficacy, viability, cherry pick confirmation [4] | Efficacy, viability, primary screening [4] | EC50 [5, 9] [µM] | further results |
| --- | --- | --- | --- | --- | --- | --- | --- | --- | --- | --- | --- | --- | --- | --- | --- |
| CCCCCCNC(=O)n1cc(F)c(=O)[nH]c1=O [Carmofur] | 17.8 | 2.97 | 121 | inactive | inactive | inactive | inactive | inactive | inactive | inactive | inactive | inactive | inactive | 2.11 | – |
| O=C(O)CCCc1ccc(N(CCCl)CCCl)cc1 [Chlorambucil] | – | – | – | – | – | – | – | – | – | – | – | – | – | – | p53 activation efficacy [1]: 39.7467; EC50 ([1]; Homo sapiens, HCT-116, read-out: p53 activation EC50): 25.7 µM; Emax ([1]; Homo sapiens, HCT-116, read-out: p53 activation efficacy): 31.3%; EC50 ([1]; read-out: p53 activation EC50): 37.3 µM; p53 activation EC50 [2]: inactive; p53 activation EC50 [3]: inactive; p53 activation efficacy [3]: inactive; Viability EC50 [4]: inactive; Viability efficacy [4]: inactive; EC50 ([5]; HCT-116, read-out: p53 activation EC50): 22.6 µM; Emax ([5]; HCT-116, read-out: p53 activation efficacy): 25.2% |
| O=c1[nH]c(=O)n([C@H]2C[C@H](O)[C@@H](CO)O2)cc1F [Floxuridine] | 15.7 | 0.643 | 59.4 | inactive | inactive | inactive | inactive | inactive | inactive | inactive | inactive | inactive | inactive | 0.326 | – |
| c1ccc2c(c1)-c1cccc3cccc-2c13 [Fluoranthene] | – | – | – | – | – | – | – | – | – | – | – | – | – | – | p53 activation EC50, cherry pick confirmation [1]: inactive; p53 activation EC50, primary screening [1]: inactive; p53 activation efficacy, cherry pick confirmation [1]: inactive; p53 activation efficacy, primary screening [1]: inactive; p53 activation EC50, cherry pick confirmation [2]: inactive; p53 activation efficacy, cherry pick confirmation [2]: inactive; p53 activation EC50, cherry pick confirmation [3]: inactive; p53 activation EC50, primary screening [3]: inactive; p53 activation efficacy, cherry pick confirmation [3]: inactive; p53 activation efficacy, primary screening [3]: inactive; Viability EC50, cherry pick confirmation [4]: inactive; Viability EC50, primary screening [4]: inactive; Viability efficacy, cherry pick confirmation [4]: inactive; Viability efficacy, primary screening [4]: inactive; EC50 ([5]; HCT-116, read-out: p53 activation EC50, primary screening): 24.4 µM; Emax ([5]; HCT-116, read-out: p53 activation efficacy, primary screening): 33.6% |

— article PMC9151520 (Archives of Toxicology, 2022)
